This note sets out measurements from PubChem BioAssay (NCI).

“And” between values parts separate entries of the source, which are not always exact repeats. Identical values can stand only once.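 Values below derive from 48-hour exposures of cells grown in 96-well plates, with endpoints linearly interpolated between the two concentrations bracketing the appropriate inhibition level. Abbreviation: GI50, concentration required for 50% inhibition of growth. TGI denotes the concentration required for complete inhibition of growth.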

Among the test systems are A549 NSCLC; ACHN renal; COLO 205 colon; HCT-116 colon; LOX IMVI melanoma; NCI-H460 lung; OVCAR-8 ovarian; RXF 393 renal.
Test in all cases: NCI anticancer screen, dose series, 48 h

With `CCN(CC)CCCC(C)Nc1ccnc2cc(Oc3ccccc3)ccc12` (stereo unspecified), the GI50 with A549 NSCLC is 4.13 µM and 14.2 µM; with ACHN renal, 5.61 µM and 6.72 µM; in the assay with COLO 205 colon, 1.88 µM and 1.65 µM; in the assay with HCT-116 colon, 2.59 µM and 3.03 µM; with LOX IMVI melanoma it was 2.05 µM and 2.13 µM; in the assay with NCI-H460 lung it was 9.21 µM and 12.6 µM. The GI50 was 3.62 µM and 9.15 µM in the assay on OVCAR-8 ovarian; 1.65 µM and 3.53 µM in the assay on RXF 393 renal. Moreover, the TGI in the assay with A549 NSCLC is 14.8 µM and 47.6 µM; in the assay with ACHN renal it was 26.2 µM and 29 µM; in the assay with COLO 205 colon, 4.4 µM and 3.94 µM; in the assay on HCT-116 colon, 13.1 µM and 21.9 µM; in the assay with LOX IMVI melanoma it was 5.06 µM and 6.82 µM; in the assay with NCI-H460 lung, 25.9 µM and 78.7 µM. Further, the TGI is 14.6 µM and 38.5 µM in the assay on OVCAR-8 ovarian; 5.82 µM and 11.2 µM in the assay with RXF 393 renal.

For the compound `Cc1c(C(N)=O)sc2c1C(=O)N(Cc1ccccc1)C1=NN=C(c3ccc(Cl)cc3)CN12`, the GI50 in the assay on A549 NSCLC was 3.57 µM; in the assay on ACHN renal, 3.02 µM; with COLO 205 colon, 4.42 µM; in the assay on HCT-116 colon, 3.44 µM; with LOX IMVI melanoma it was 1.62 µM; in the assay on NCI-H460 lung it was 2.13 µM. The GI50 with OVCAR-8 ovarian is 2.97 µM; with RXF 393 renal, 2.16 µM. Further, the TGI with A549 NSCLC amounted to 13.5 µM; in the assay on ACHN renal it was 11.6 µM; in the assay on COLO 205 colon, 16.9 µM; in the assay with HCT-116 colon, 14.5 µM; in the assay on LOX IMVI melanoma, 10.8 µM; in the assay on NCI-H460 lung it was 7.69 µM. For the same compound, the results for the TGI with OVCAR-8 ovarian and in the assay on RXF 393 renal were 15.2 µM and 7.71 µM, respectively.

As for `CC(C)(C)OC(=O)N1CCN(CCn2cc(C(F)(F)F)c3c(Cl)ncnc32)CC1`, the GI50 is 19.3 µM in the assay with A549 NSCLC; 16.9 µM in the assay on ACHN renal; 18.4 µM with COLO 205 colon; 1.68 µM with HCT-116 colon; 1.73 µM with LOX IMVI melanoma; 2.18 µM in the assay on NCI-H460 lung. Also, the values for the GI50 in the assay with OVCAR-8 ovarian and with RXF 393 renal were 2.06 µM and 3.43 µM, respectively. In addition, the TGI in the assay with A549 NSCLC was 35.6 µM; with ACHN renal, 39.3 µM; in the assay with COLO 205 colon it was 37.9 µM; in the assay on HCT-116 colon, 3.15 µM; in the assay with LOX IMVI melanoma, 3.24 µM; in the assay on NCI-H460 lung, 4.29 µM. Further, the TGI was 3.76 µM in the assay on OVCAR-8 ovarian and 14.4 µM in the assay on RXF 393 renal.

For `COc1cc(NC(C)CCCNC2CN3CCC2CC3)c2ncccc2c1` (stereo unspecified), the GI50 is 12.9 µM in the assay on A549 NSCLC; 14.7 µM in the assay on ACHN renal; 2.58 µM with COLO 205 colon; 3.75 µM in the assay on HCT-116 colon; 9.6 µM with LOX IMVI melanoma; 15.9 µM in the assay with NCI-H460 lung. In addition, the GI50 is 13.7 µM with OVCAR-8 ovarian and 3.44 µM in the assay with RXF 393 renal. In addition, the TGI was found to be 27.5 µM in the assay with A549 NSCLC; 29.3 µM in the assay with ACHN renal; 7.16 µM in the assay on COLO 205 colon; 13.9 µM in the assay on HCT-116 colon; 25 µM in the assay on LOX IMVI melanoma; 32.3 µM in the assay with NCI-H460 lung. For the same compound, the values for the TGI with OVCAR-8 ovarian and in the assay on RXF 393 renal were 30.1 µM and 15.4 µM, respectively.

Take `O=C1Nc2ccccc2/C1=C/C(=O)c1coc2c1C(=O)c1ccccc1C2=O`: the GI50 with A549 NSCLC, with ACHN renal, with COLO 205 colon, in the assay on HCT-116 colon, in the assay with LOX IMVI melanoma and in the assay on NCI-H460 lung was above 100 µM each time. Further, the GI50 in the assay on OVCAR-8 ovarian and with RXF 393 renal was above 100 µM in each case. Besides, the TGI in the assay on A549 NSCLC, in the assay with ACHN renal, in the assay with COLO 205 colon, in the assay on HCT-116 colon, with LOX IMVI melanoma and with NCI-H460 lung was above 100 µM each time. Further, the TGI with OVCAR-8 ovarian and in the assay with RXF 393 renal was above 100 µM each time.

Regarding `COc1ccc(C(=O)OC2C(OC3C(O)COC(O[C@H]4C[C@H]5[C@@H]6CC=C7C[C@@H](O)CC[C@]7(C)[C@H]6CC[C@]5(C)[C@H]4[C@H](C)C(=O)CCC(C)C)C3OC(N)=O)OCC(O)C2O)cc1` (stereo partly specified), the GI50 in the assay on A549 NSCLC was 0.0773 µM; in the assay on ACHN renal, 0.471 µM; in the assay on COLO 205 colon, 0.072 µM; with HCT-116 colon it was 0.0198 µM; in the assay with LOX IMVI melanoma, 0.0137 µM; in the assay with NCI-H460 lung it was 0.0142 µM. Moreover, the GI50 was 3.14 µM in the assay with OVCAR-8 ovarian and below 0.003 µM in the assay with RXF 393 renal. Besides, the TGI in the assay with A549 NSCLC was 4.75 µM; in the assay on ACHN renal, 5.53 µM; with COLO 205 colon it was 0.507 µM; in the assay on HCT-116 colon, 3.56 µM; in the assay with LOX IMVI melanoma, 0.158 µM; with NCI-H460 lung, 0.496 µM. The TGI turned out to be 9.27 µM in the assay on OVCAR-8 ovarian and 0.0509 µM in the assay on RXF 393 renal.

For `CN[C@@H](C)C(=O)N[C@H](C(=O)N1CCC[C@H]1C(=O)Nc1snnc1-c1ccccc1)C1CCCCC1`, the GI50 with A549 NSCLC was 71.6 µM; with ACHN renal, 52.7 µM; with COLO 205 colon, 21.6 µM; in the assay on HCT-116 colon it was 41.6 µM; in the assay on LOX IMVI melanoma it was 35.3 µM; in the assay with NCI-H460 lung, 58.1 µM. Besides, the GI50 is 13.8 µM with OVCAR-8 ovarian and 5.18 µM with RXF 393 renal. The TGI in the assay on A549 NSCLC is above 100 µM; in the assay with ACHN renal it was above 100 µM; in the assay with COLO 205 colon, 42.1 µM; in the assay on HCT-116 colon, above 100 µM; in the assay with LOX IMVI melanoma, above 83.3 µM; in the assay on NCI-H460 lung, above 100 µM. The TGI in the assay with OVCAR-8 ovarian was found to be 21.3 µM; with RXF 393 renal it was 40.1 µM.

Turning to `N#CC(NC12CC3CC(CC(C3)C1)C2)c1ccc2c(c1)OCO2` (stereo unspecified), the TGI in the assay on A549 NSCLC, with ACHN renal, in the assay on COLO 205 colon, in the assay on HCT-116 colon, with LOX IMVI melanoma and in the assay with NCI-H460 lung was above 100 µM in each case. Besides, the TGI in the assay with OVCAR-8 ovarian and in the assay on RXF 393 renal was above 100 µM each time.

Take `FC(F)(F)c1ccc(Nc2nc(-c3c(C(F)(F)F)nc4ccccn34)cs2)cc1`: the GI50 was 0.0625 µM with A549 NSCLC; 0.061 µM with ACHN renal; 0.0323 µM in the assay on COLO 205 colon; 0.0426 µM in the assay with HCT-116 colon; 0.0533 µM in the assay with LOX IMVI melanoma; 0.0353 µM in the assay with NCI-H460 lung. Moreover, the GI50 in the assay on OVCAR-8 ovarian is 0.18 µM; with RXF 393 renal, 0.0389 µM. Further, the TGI in the assay on A549 NSCLC was 10.6 µM; with ACHN renal, 6.83 µM; with COLO 205 colon, 0.167 µM; with HCT-116 colon it was 2.38 µM; with LOX IMVI melanoma, 7.95 µM; in the assay with NCI-H460 lung it was 4.75 µM. The TGI in the assay on OVCAR-8 ovarian is 7.74 µM; in the assay with RXF 393 renal, 0.316 µM.
